EC50 and Ki data for 23 compounds are collected here from patent US9163007B2, “5-substituted indazoles as kinase inhibitors” (AbbVie Inc., priority 2007, dated 2015).

The term EC50 denotes the midpoint of the concentration-response curve. As usually defined, the Ki is the dissociation constant of the complex between target and ligand, obtained from inhibition or displacement.

One test deals with HCT-116 cells. Put plainly: AlamarBlue Cell Viability Assays. The test is classed as cell-based. The following applies: Homo sapiens, treated 72 hours. On the procedure: AlamarBlue Cell Viability Assays
HCT-116 cells (3,000/well; 96-well format) were treated for 72 hours with increasing concentrations of compounds (0.01-30 μM in half-log increments). The cells were then incubated in fresh media with 10% AlamarBlue reagent (Invitrogen #DAL1100). AlamarBlue reactions were incubated according to the manufacturer's instructions (approximately 4 hours) and then analyzed using an fmax fluorescence microplate reader (Molecular Devices) using excitation/emission wavelengths of 544/595 nm. Data were analyzed using SOFTmax PRO software provided by the manufacturer.
A general note: The colour change of resazurin is a common sign of viable cells or microbes.

A further test concerns the target Cdc7/Dbf4 (Homo sapiens (Human), UniProt O00311). Put plainly: Cdc7 Inhibition Assay.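 Further: reaction mixtures incubated 30 min on streptavidin-coated plates, then quantified by scintillation counting, with inhibition curves fitted by non-linear regression.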 The test is classed as biochemical.
Test [1] has as its system phospho-MCM2 Ser53 in HCT-116 cells. The experiment in a line: Phospho-MCM2 ELISA. The test is classed as cell-based. Particulars: Homo sapiens, treated 6 hours. On the procedure: HCT-116 cells (20,000/well; 96-well format) were treated for 6 hours with increasing concentrations of compounds (0.01-10 μM in half-log increments). After removing the medium/inhibitor, the cells were frozen for 5 minutes and treated on ice with 20 μL of lysis buffer (Invitrogen #FNN0011) for 30 minutes. 80 μL of cold 2% BSA (in PBS) were then added to each well before transferring 80 μL to MCM2 antibody-coated plates (Bethyl #A300-122A, lot A300-122A-1). The plates were incubated overnight at 4° C., washed, and then incubated with the sandwich antibody (1:100 rabbit anti-human phospho-MCM2 Ser53; Bethyl #A300-756A, lot A300-756A-2) for 2 hours at room temperature. After another series of washes the samples are incubated for 1 hour with detection antibody (XSA-grade goat anti-rabbit-HRP, KPL #074-15-061, lot 50884, diluted to 2 μg/mL in 2% BSA). Plates were washed, developed using luminescence substrate (SuperSignal Pico for ELISA, Pierce #37069, Lot. HB101408), and read on a Molecular Devices M5 luminometer.
(ELISA stands for enzyme-linked immunosorbent assay.)

[2] abbreviates: 6 data point, read-out: Ki (μM) 6 data point.
Setting [3] is: 11 data point, read-out: Ki (μM) 11 data point.

Like-named read-outs stand apart in the source and are kept apart here.

Cdc7/Dbf4, sequence (O00311 whole entry): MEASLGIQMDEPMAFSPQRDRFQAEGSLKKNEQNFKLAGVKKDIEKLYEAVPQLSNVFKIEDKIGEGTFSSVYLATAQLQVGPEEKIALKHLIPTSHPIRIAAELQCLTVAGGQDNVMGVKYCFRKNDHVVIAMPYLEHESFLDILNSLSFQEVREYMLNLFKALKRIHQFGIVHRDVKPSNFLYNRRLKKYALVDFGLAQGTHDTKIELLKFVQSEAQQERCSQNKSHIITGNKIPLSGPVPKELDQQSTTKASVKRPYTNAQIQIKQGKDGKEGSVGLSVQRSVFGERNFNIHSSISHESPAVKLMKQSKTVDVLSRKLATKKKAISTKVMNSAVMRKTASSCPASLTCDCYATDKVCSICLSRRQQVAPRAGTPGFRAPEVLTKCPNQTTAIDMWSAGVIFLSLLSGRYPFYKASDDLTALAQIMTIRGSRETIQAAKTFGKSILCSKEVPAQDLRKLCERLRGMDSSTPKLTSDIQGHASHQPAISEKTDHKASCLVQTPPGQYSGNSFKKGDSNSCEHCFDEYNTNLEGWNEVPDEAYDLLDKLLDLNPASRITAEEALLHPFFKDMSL
Cdc7/Dbf4, sequence (Q9UBU7 whole entry partner): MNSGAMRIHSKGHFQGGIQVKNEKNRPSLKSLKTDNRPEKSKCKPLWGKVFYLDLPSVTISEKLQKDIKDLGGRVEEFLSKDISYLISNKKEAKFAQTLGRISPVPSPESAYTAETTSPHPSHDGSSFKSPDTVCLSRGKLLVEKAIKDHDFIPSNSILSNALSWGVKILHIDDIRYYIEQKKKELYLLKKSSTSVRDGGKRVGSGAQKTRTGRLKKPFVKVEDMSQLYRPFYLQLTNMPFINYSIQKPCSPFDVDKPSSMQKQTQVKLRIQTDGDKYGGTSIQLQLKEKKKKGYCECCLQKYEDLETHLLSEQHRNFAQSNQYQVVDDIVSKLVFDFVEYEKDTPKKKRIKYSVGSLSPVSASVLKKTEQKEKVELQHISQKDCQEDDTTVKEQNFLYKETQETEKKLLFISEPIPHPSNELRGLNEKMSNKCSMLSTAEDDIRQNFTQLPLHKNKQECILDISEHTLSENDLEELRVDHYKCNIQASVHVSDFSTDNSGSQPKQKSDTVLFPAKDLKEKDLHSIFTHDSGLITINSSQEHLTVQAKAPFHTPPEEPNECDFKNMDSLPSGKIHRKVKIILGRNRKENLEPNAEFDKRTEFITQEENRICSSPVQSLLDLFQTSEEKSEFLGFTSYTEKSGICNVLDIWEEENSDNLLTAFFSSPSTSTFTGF
Description for Cdc7/Dbf4: The reactions were incubated for 30 minutes on streptavidin-coated plates, washed, and quantified using a TopCount scintillation plate reader (Packard). IC50 values are determined via non-linear regression fitting of the data.

`O=C(Nc1n[nH]c2ccc(-c3nnn(Cc4ccccc4)c3-c3ccccc3)cc12)c1ccccc1` [Example 198, N-[5-(1-benzyl-5-phenyl-1H-1,2,3-triazol-4-yl)-1H-indazol-3-yl]benzamide]: the EC50 turned out to be 2900 nM with HCT-116 cells and 4160 nM in test [1]. For the same compound, the inhibitory constant (Ki) was determined as 0.0008 µM on Cdc7/Dbf4 (setting [2]) and 0.0009 µM on Cdc7/Dbf4 (setting [3]).

Take `Nc1n[nH]c2ccc(-c3nnn(Cc4ccccc4)c3CC3CCCCC3)cc12` [Example 403, 5-[1-benzyl-5-(cyclohexylmethyl)-1H-1,2,3-triazol-4-yl]-1H-indazol-3-amine]: the 50% effective concentration (EC50) in the test on HCT-116 cells is 8 nM; in test [1] it was greater than 10000 nM. Besides, the inhibition constant (Ki) on Cdc7/Dbf4 (setting [3]) is 0.0082 µM.

Take `Nc1n[nH]c2ccc(-c3nnn(Cc4ccccc4)c3C3CC3)cc12` [Example 89, 5-(1-benzyl-5-cyclopropyl-1H-1,2,3-triazol-4-yl)-1H-indazol-3-amine]: the values for the EC50 (in the test on HCT-116 cells; in test [1]) were 5480 nM and greater than 10000 nM, respectively. Further, the inhibition constant Ki at Cdc7/Dbf4 (setting [3]) is 0.035 µM.

With `Clc1ccccc1CNc1n[nH]c2ccc(-c3nnn(Cc4ccccc4)c3C3CC3)cc12` [Example 222, 5-(1-benzyl-5-cyclopropyl-1H-1,2,3-triazol-4-yl)-N-(2-chlorobenzyl)-1H-indazol-3-amine], the EC50 in the test with HCT-116 cells is 2110 nM; in test [1], greater than 10000 nM. Further, the Ki at Cdc7/Dbf4 (setting [3]) turned out to be 0.093 µM.

For `NC(=O)N(Cc1ccccc1)c1n[nH]c2ccc(-c3nnn(Cc4ccccc4)c3C3CC3)cc12` [Example 262, N-benzyl-N-[5-(1-benzyl-5-cyclopropyl-1H-1,2,3-triazol-4-yl)-1H-indazol-3-yl]urea], the 50% effective concentration (EC50) in the test on HCT-116 cells is 3420 nM; in test [1], greater than 10000 nM. Moreover, the inhibitory constant (Ki) at Cdc7/Dbf4 (setting [3]) came to 0.041 µM.

`O=C(Nc1n[nH]c2ccc(-c3nnn(Cc4ccccc4)c3C3CC3)cc12)c1cccc(F)c1` [Example 205, N-[5-(1-benzyl-5-cyclopropyl-1H-1,2,3-triazol-4-yl)-1H-indazol-3-yl]-3-fluorobenzamide]: the concentration giving a half-maximal response (EC50) in the test on HCT-116 cells is 595 nM; in test [1], greater than 10000 nM. Besides, the Ki turned out to be 0.0009 µM on Cdc7/Dbf4 (setting [2]) and 0.0024 µM on Cdc7/Dbf4 (setting [3]).

Regarding `Fc1ccc(-c2c(-c3ccc4[nH]ncc4c3)nnn2CC2CCOCC2)cc1` [Example 167, 5-[5-(4-fluorophenyl)-1-(tetrahydro-2H-pyran-4-ylmethyl)-1H-1,2,3-triazol-4-yl]-1H-indazole], the concentration giving a half-maximal response (EC50) was 18200 nM in the test on HCT-116 cells and 4310 nM in test [1]. Further, the Ki on Cdc7/Dbf4 (setting [3]) is 0.00105 µM.

As for `NC(=O)N(c1ccccc1Cl)c1n[nH]c2ccc(-c3nnn(Cc4ccccc4)c3C3CC3)cc12` [Example 263, N-[5-(1-benzyl-5-cyclopropyl-1H-1,2,3-triazol-4-yl)-1H-indazol-3-yl]-N-(2-chlorophenyl)urea], the EC50 is 1040 nM with HCT-116 cells and greater than 10000 nM in test [1]. At Cdc7/Dbf4 (setting [3]), the inhibition constant Ki was determined as 0.022 µM.

Take `c1ccc(Cn2cc(-c3ccc4[nH]nc(-c5ccccc5)c4c3)nn2)cc1` [Example 61, 5-(1-benzyl-1H-1,2,3-triazol-4-yl)-3-phenyl-1H-indazole]: the EC50 with HCT-116 cells was determined as 3980 nM; in test [1] it was 8790 nM. Besides, the Ki on Cdc7/Dbf4 (setting [3]) amounted to 0.0077 µM.

Consider `CCNC(=O)Nc1n[nH]c2ccc(-c3cn(Cc4ccccc4)nn3)cc12` [Example 322, N-[5-(1-benzyl-1H-1,2,3-triazol-4-yl)-1H-indazol-3-yl]-N′-ethylurea], for which the EC50 was 1530 nM in the test on HCT-116 cells and greater than 10000 nM in test [1]. The Ki at Cdc7/Dbf4 (setting [3]) worked out at 0.034 µM.

As for `c1ccc(Cn2cc(-c3ccc4[nH]nc(-c5cn(Cc6ccccc6)nn5)c4c3)nn2)cc1` [Example 60, 3,5-bis(1-benzyl-1H-1,2,3-triazol-4-yl)-1H-indazole], the EC50 in the test with HCT-116 cells is 143 nM; in test [1] it was greater than 10000 nM. Further, the inhibition constant Ki on Cdc7/Dbf4 (setting [3]) was determined as 0.0556 µM.

With `Clc1ccc(CNc2n[nH]c3ccc(-c4nnn(Cc5ccccc5)c4C4CC4)cc23)cc1` [Example 227, 5-(1-benzyl-5-cyclopropyl-1H-1,2,3-triazol-4-yl)-N-(4-chlorobenzyl)-1H-indazol-3-amine], the 50% effective concentration (EC50) with HCT-116 cells is 1400 nM; in test [1], greater than 10000 nM. The Ki at Cdc7/Dbf4 (setting [3]) came out at 0.015 µM.

Take `c1ccc(Cn2nnc(-c3ccc4[nH]ncc4c3)c2-c2ccccc2)cc1` [Example 87, 5-(1-benzyl-5-phenyl-1H-1,2,3-triazol-4-yl)-1H-indazole]: the half-maximal effective concentration (EC50) with HCT-116 cells worked out at 11000 nM; in test [1] it was 5950 nM. The Ki on Cdc7/Dbf4 (setting [3]) is 0.000601 µM.

Take `Cc1ccccc1-c1c(-c2ccc3[nH]nc(C)c3c2)nnn1Cc1ccccc1` [Example 162, 5-[1-benzyl-5-(2-methylphenyl)-1H-1,2,3-triazol-4-yl]-3-methyl-1H-indazole]: the values for the EC50 (in the test on HCT-116 cells; in test [1]) were 1450 nM and 5740 nM, respectively. Moreover, at Cdc7/Dbf4 (setting [3]), the Ki was determined as 0.00225 µM.

Turning to `Nc1n[nH]c2ccc(-c3nnn(Cc4ccccc4)c3-c3cccc(N4CCOCC4)c3)cc12` [Example 194, 5-[1-benzyl-5-(3-morpholin-4-ylphenyl)-1H-1,2,3-triazol-4-yl]-1H-indazol-3-amine], the figures for the EC50 (in the test on HCT-116 cells; in test [1]) were 4390 nM and greater than 10000 nM, respectively. On Cdc7/Dbf4 (setting [3]), the inhibitory constant (Ki) is 0.068 µM.

Consider `CCCN(C(N)=O)c1n[nH]c2ccc(-c3cn(Cc4ccccc4)nn3)cc12` [Example 319, N-[5-(1-benzyl-1H-1,2,3-triazol-4-yl)-1H-indazol-3-yl]-N-propylurea], for which the results for the EC50 (in the test with HCT-116 cells; in test [1]) were 1560 nM and greater than 10000 nM, respectively. For the same compound, the inhibition constant (Ki) on Cdc7/Dbf4 (setting [3]) was 0.068 µM.

As for `c1ccc(Cn2cc(-c3ccc4[nH]nc(-c5cccs5)c4c3)nn2)cc1` [Example 401, 5-(1-benzyl-1H-1,2,3-triazol-4-yl)-3-thien-2-yl-1H-indazole], the concentration giving a half-maximal response (EC50) in the test with HCT-116 cells is 6720 nM; in test [1] it was greater than 10000 nM. Further, the Ki at Cdc7/Dbf4 (setting [3]) is 0.00492 µM.

Consider `Cn1cc(-c2c(-c3ccc4[nH]nc(N)c4c3)nnn2Cc2ccccc2)cn1` [Example 189, 5-[1-benzyl-5-(1-methyl-1H-pyrazol-4-yl)-1H-1,2,3-triazol-4-yl]-1H-indazol-3-amine], for which the EC50 in the test on HCT-116 cells turned out to be 19200 nM; in test [1], 5320 nM. Also, the inhibitory constant (Ki) on Cdc7/Dbf4 (setting [3]) was 0.0019 µM.

In the case of `Nc1n[nH]c2ccc(-c3nnn(Cc4ccccc4)c3-c3cccs3)cc12` [Example 406, 5-(1-benzyl-5-thien-2-yl-1H-1,2,3-triazol-4-yl)-1H-indazol-3-amine], the values for the EC50 (with HCT-116 cells; in test [1]) were 1500 nM and 671 nM, respectively. For the same compound, the Ki on Cdc7/Dbf4 (setting [3]) was determined as 0.0005 µM.

Take `Nc1n[nH]c2ccc(-c3nnn(Cc4ccccc4)c3CC3CCCC3)cc12` [Example 409, 5-[1-benzyl-5-(cyclopentylmethyl)-1H-1,2,3-triazol-4-yl]-1H-indazol-3-amine]: the EC50 in the test with HCT-116 cells was 13500 nM; in test [1], greater than 10000 nM. Further, the inhibitory constant (Ki) on Cdc7/Dbf4 (setting [3]) amounted to 0.02 µM.

Take `O=C(Nc1nn(C(=O)c2ccccc2)c2ccc(-c3nnn(Cc4ccccc4)c3C3CC3)cc12)c1ccccc1` [Example 204, N-[1-benzoyl-5-(1-benzyl-5-cyclopropyl-1H-1,2,3-triazol-4-yl)-1H-indazol-3-yl]benzamide]: the EC50 was 128 nM in the test on HCT-116 cells and 6210 nM in test [1]. On Cdc7/Dbf4 (setting [3]), the Ki was found to be 0.11 µM.

For `Nc1n[nH]c2ccc(-c3nnn(Cc4ccccc4)c3Cc3ccccc3)cc12` [Example 405, 5-(1,5-dibenzyl-1H-1,2,3-triazol-4-yl)-1H-indazol-3-amine], the results for the EC50 (in the test with HCT-116 cells; in test [1]) were 6620 nM and 3100 nM, respectively. Besides, the Ki at Cdc7/Dbf4 (setting [3]) is 0.0011 µM.

Consider `COCC(=O)Nc1n[nH]c2ccc(-c3cn(Cc4ccccc4)nn3)cc12` [Example 64, N-[5-(1-benzyl-1H-1,2,3-triazol-4-yl)-1H-indazol-3-yl]-2-methoxyacetamide], for which the EC50 with HCT-116 cells is 422 nM; in test [1] it was greater than 10000 nM. For the same compound, the Ki on Cdc7/Dbf4 (setting [3]) is 0.015 µM.
